Tested on: Elongator complex protein 1 (ELP1, also referred to as IKBKAP)
Experiment: IKBKAP-HTRF Assay
Type: cell-based, human
Settings: FD patient-derived fibroblasts GM04589, 48 hours incubation; for EC2x for IKBKAP protein expression (concentration producing two times the amount of IKBKAP protein vs DMSO vehicle control): 7-point concentration curve; for MFI (maximum fold increase in IKBKAP protein abundance relative to the vehicle control): HTRF
Description: The assay is used for the quantitative determination of Elongator complex protein 1 (ELP1, also referred to as IKBKAP) concentration in cell lysates using the HTRF® (Homogeneous Time-Resolved Fluorescence) technology. IKBKAP is detected in a sandwich HTRF assay by use of an anti-IKAP antibody labeled with a donor and an anti-IKAP antibody labeled with an acceptor.
Cells were thawed and incubated in DMEM-10% FBS for 72 hours. Cells were trypsinized, counted, and re-suspended to a concentration of 50,000 cells/mL in DMEM-10% FBS. A 199 μL, aliquot of the cell suspensions were plated at 10,000 cells per well in a 96 well microtiter plate and incubated for 3 to 5 hours. […] Test compounds were serially diluted 3.16-fold in 100% DMSO to generate a 7-point concentration curve. A 1 μL aliquot of 200× compound solution was transferred to cell-containing wells, and cells were incubated for 48 hours in a cell culture incubator (37° C., 5% CO2, 100% relative humidity). Triplicate samples were set up for each compound concentration. After 48 hours, the supernatant was removed from the cells and 50 μL of the 1× LB4 lysis buffer, containing protease inhibitors, was added to the cells and incubated with shaking at room temperature for 1 hour. A 36 μL aliquot of this lysate was subsequently transferred to the 384-well plate containing 4 μL of the antibody solution (1:50 dilution of anti IKAP d2 and anti-IKAP K(9+8) in detection buffer). The 384-well plate was then centrifuged for 1 minute to bring the solutions to the bottom of the plate and incubated overnight at 4° C. Fluorescence for each well of the plate at 665 nm and 620 nm was measured was on the EnVision plate reader (Perkin Elmer). The AF for each sample is calculated by: […]
wherein Signal is the normalized fluorescence for each sample well and Blank is the average normalized average fluorescence for the Blank control wells.
The maximum fold increase (MFI) in IKBKAP protein abundance for compounds of Formula (I) or a form thereof relative to the vehicle control are provided in Table 1. MFI was calculated by dividing the AF value for each sample well by the sample AF for the vehicle control wells.
The EC2× for IKBKAP protein expression obtained from the 7-point concentration curve generated for each test compound according to the protocol in Biological Example 1 are also provided in Table 1. The term “EC2× for IKBKAP protein expression” is defined as the concentration of test compound that is effective in producing two times the amount of IKBKAP protein in a FD patient cell compared to the amount produced from the DMSO vehicle control.

Structure (SMILES) | EC2x for IKBKAP protein expression (concentration producing two times the amount of IKBKAP protein vs DMSO vehicle control) | MFI (maximum fold increase in IKBKAP protein abundance relative to the vehicle control)
C[C@H](N)c1sc2c(NCc3ccco3)nc(Cl)nc2c1Br [Cpd 46, 6-[(1S)-1-aminoethyl]-7-bromo-2-chloro-N-[(furan-2-yl)methyl]thieno[3,2-d]pyrimidin-4-amine] | * (EC2×>1 μM) | * (MFI<1.9)
Cc1c(C[C@H](C)N)sc2c(NCc3cccnc3F)nc(Cl)nc12 [Cpd 60, 6-[(2S)-2-aminopropyl]-2-chloro-N-[(2-fluoropyridin-3-yl)methyl]-7-methylthieno[3,2-d]pyrimidin-4-amine] | *** (between >0.02 μM and ≤0.5 μM) | *** (between >2.9 and <3.9)
Cc1c(C[C@H](C)N)sc2c(NCc3ccco3)nc(C(N)=O)nc12 [Cpd 20, 6-[(2S)-2-aminopropyl]-4-{[(furan-2-yl)methyl]amino}-7-methylthieno[3,2-d]pyrimidine-2-carboxamide] | * (EC2×>1 μM) | ** (between >1.9 and <2.9)
Cc1nc(NCc2ccco2)c2sc(C[C@H](C)N)c(C)c2n1 [Cpd 15, 6-[(2S)-2-aminopropyl]-N-[(furan-2-yl)methyl]-2,7-dimethylthieno[3,2-d]pyrimidin-4-amine] | **** (between >0.005 μM and ≤0.02 μM) | ***** (>4.9)
CC(C)[C@H](N)Cc1cc2nc(Cl)nc(NCc3ccco3)c2s1 [Cpd 5, 6-[(2R)-2-amino-3-methylbutyl]-2-chloro-N-[(furan-2-yl)methyl]thieno[3,2-d]pyrimidin-4-amine] | *** (between >0.02 μM and ≤0.5 μM) | *** (between >2.9 and <3.9)
Clc1nc(NCc2ccncc2)c2sccc2n1 [Cpd 1, 2-chloro-N-[(pyridin-4-yl)methyl]thieno[3,2-d]pyrimidin-4-amine] | * (EC2×>1 μM) | **** (between >3.9 and <4.9)
CC[C@H](N)Cc1cc2nc(Cl)nc(NCc3ccco3)c2s1 [Cpd 4, 6-[(2S)-2-aminobutyl]-2-chloro-N-[(furan-2-yl)methyl]thieno[3,2-d]pyrimidin-4-amine] | **** (between >0.005 μM and ≤0.02 μM) | **** (between >3.9 and <4.9)
Cc1c(C[C@H](C)N)sc2c(NCc3ncc[nH]3)nc(Cl)nc12 [Cpd 73, 6-[(2S)-2-aminopropyl]-2-chloro-N-[(1H-imidazol-2-yl)methyl]-7-methylthieno[3,2-d]pyrimidin-4-amine] | *** (between >0.02 μM and ≤0.5 μM) | ** (between >1.9 and <2.9)
C[C@H](N)c1sc2c(NCc3ccco3)nc(-c3ccccc3)nc2c1-c1ccccc1 [Cpd 61, 6-[(1S)-1-aminoethyl]-N-[(furan-2-yl)methyl]-2,7-diphenylthieno[3,2-d]pyrimidin-4-amine] | * (EC2×>1 μM) | * (MFI<1.9)
Clc1nc(NCc2ccncn2)c2sccc2n1 [Cpd 95, 2-chloro-N-[(pyrimidin-4-yl)methyl]thieno[3,2-d]pyrimidin-4-amine] | * (EC2×>1 μM) | *** (between >2.9 and <3.9)
C[C@H](N)Cc1cc2nc(Cl)nc(NCc3cccs3)c2s1 [Cpd 14, 6-[(2S)-2-aminopropyl]-2-chloro-N-[(thiophen-2-yl)methyl]thieno[3,2-d]pyrimidin-4-amine] | **** (between >0.005 μM and ≤0.02 μM) | ***** (>4.9)
Cc1c(C2CNC2)sc2c(NCc3ccco3)nc(Cl)nc12 [Cpd 41, 6-(azetidin-3-yl)-2-chloro-N-[(furan-2-yl)methyl]-7-methylthieno[3,2-d]pyrimidin-4-amine] | *** (between >0.02 μM and ≤0.5 μM) | ** (between >1.9 and <2.9)
Clc1nc(NCc2ccco2)c2sccc2n1 [Cpd 2, 2-chloro-N-[(furan-2-yl)methyl]thieno[3,2-d]pyrimidin-4-amine] | * (EC2×>1 μM) | *** (between >2.9 and <3.9)
C[C@H](N)Cc1cc2ncnc(NCc3ccncc3)c2s1 [Cpd 11, 6-[(2S)-2-aminopropyl]-N-[(pyridin-4-yl)methyl]thieno[3,2-d]pyrimidin-4-amine] | *** (between >0.02 μM and ≤0.5 μM) | **** (between >3.9 and <4.9)
CC[C@H](C)[C@H](N)Cc1cc2nc(Cl)nc(NCc3ccco3)c2s1 [Cpd 6, 6-[(2R,3S)-2-amino-3-methylpentyl]-2-chloro-N-[(furan-2-yl)methyl]thieno[3,2-d]pyrimidin-4-amine] | *** (between >0.02 μM and ≤0.5 μM) | *** (between >2.9 and <3.9)
Cc1c([C@@H](C)N)sc2c(NCc3ccco3)nc(Cl)nc12 [Cpd 94, 6-[(1R)-1-aminoethyl]-2-chloro-N-[(furan-2-yl)methyl]-7-methylthieno[3,2-d]pyrimidin-4-amine] | * (EC2×>1 μM) | * (MFI<1.9)
Cc1c([C@H](C)N)sc2c(NCc3ccco3)nc(Cl)nc12 [Cpd 47, 6-[(1S)-1-aminoethyl]-2-chloro-N-[(furan-2-yl)methyl]-7-methylthieno[3,2-d]pyrimidin-4-amine] | *** (between >0.02 μM and ≤0.5 μM) | *** (between >2.9 and <3.9)
Cc1c(C[C@H](C)CO)sc2c(NCc3ccco3)nc(Cl)nc12 [Cpd 66, (2S)-3-(2-chloro-4-{[(furan-2-yl)methyl]amino}-7-methylthieno[3,2-d]pyrimidin-6-yl)-2-methylpropan-1-ol] | * (EC2×>1 μM) | * (MFI<1.9)
COc1ccc(-c2c(C[C@H](C)N)sc3c(NCc4ccco4)nc(Cl)nc23)cc1 [Cpd 65, 6-[(2S)-2-aminopropyl]-2-chloro-N-[(furan-2-yl)methyl]-7-(4-methoxyphenyl)thieno[3,2-d]pyrimidin-4-amine] | * (EC2×>1 μM) | * (MFI<1.9)
C[C@H](N)Cc1sc2c(NCc3ccco3)nc(Cl)nc2c1C1CC1 [Cpd 36, 6-[(2S)-2-aminopropyl]-2-chloro-7-cyclopropyl-N-[(furan-2-yl)methyl]thieno[3,2-d]pyrimidin-4-amine] | **** (between >0.005 μM and ≤0.02 μM) | ***** (>4.9)
CCc1c(C[C@H](C)N)sc2c(NCc3ccco3)nc(Cl)nc12 [Cpd 77, 6-[(2S)-2-aminopropyl]-2-chloro-7-ethyl-N-[(furan-2-yl)methyl]thieno[3,2-d]pyrimidin-4-amine] | **** (between >0.005 μM and ≤0.02 μM) | ***** (>4.9)
Cc1csc2c(NCc3ccncc3)nc(Cl)nc12 [Cpd 23, 2-chloro-7-methyl-N-[(pyridin-4-yl)methyl]thieno[3,2-d]pyrimidin-4-amine] | *** (between >0.02 μM and ≤0.5 μM) | ***** (>4.9)

— patent US20230057568A1, “COMPOUNDS FOR TREATING FAMILIAL DYSAUTONOMIA” (PTC THERAPEUTICS, INC., priority 2019, published 2023)
